Patent publication US4472304A, “(Amido)N-substituted bleomycins, salts thereof and process for preparation thereof” (Nippon Kayaku Kabushiki Kaisha, priority 1981, dated 1984)

What was measured:
Bacillus subtilis = test: Antimicrobial activity against Bacillus subtilis (agar plate-cylinder); format: cell-based; details: standard bleomycin A2 (copper-free) assumed 1,000 mcg potency/mg
Protocol: (§1) 2. ANT[…] MYC[…] ATCC 607 AND BACILLUS SUBTILIS
(§2) The antimicrobial activity was tested against the captioned test organisms by the method of agar plate-cylinder. The activity was recorded on the assumption that the activity of standard sample of bleomycin A2 (copper-free form) is 1,000 mcg poteney/mg.

pulmonary fibrosis = test: Pulmonary toxicity (pulmonary fibrosis) in mice; details: for Incidence: Number of mice with pulmonary fibrosis (%) / Incidence: Number of mice with pulmonary fibrosis / Grade: Total score of pulmonary fibrosis/total number of samples / Grade: Total score of pulmonary fibrosis/total number of samples (%): ICR mice, 5 mg/kg i.p. once a day for 10 days; for Incidence: Number of mice with pulmonary fibrosis (%) / Incidence: Number of mice with pulmonary fibrosis: 5 weeks observation; for Incidence: Number of mice with pulmonary fibrosis: mice with fibrosis/total; for Grade: Total score of pulmonary fibrosis/total number of samples / Grade: Total score of pulmonary fibrosis/total number of samples (%): points 0, 1, 2, 4, 6; for Ratio (by comparison with "Bleomycin Complex"): versus Bleomycin Complex
[1] = test system: Mycobacterium smegmatis ATCC 607; test: Antimicrobial activity against Mycobacterium smegmatis ATCC 607 (agar plate-cylinder); format: cell-based; details: standard bleomycin A2 (copper-free) assumed 1,000 mcg potency/mg
Protocol: as §1, §2

Cc1c(N)nc(C(CC(N)=O)NCC(N)C(=O)NC(C)C)nc1C(=O)NC(C(=O)NC(C)C(O)C(C)C(=O)NC(C(=O)NCCc1nc(-c2nc(C(=O)NCCCNC(C)c3ccccc3)cs2)cs1)C(C)O)C(OC1OC(CO)C(O)C(O)C1OC1OC(CO)C(O)C(OC(N)=O)C1O)c1cnc[nH]1 [Compound 21, 3-((S)-1'-phenylethyl)aminopropylamino-(amido)N--[isopropyl]-BLM]
Antimicrobial potency of Cu-free compound against Bacillus subtilis (Bacillus subtilis): 962 mcg potency/mg | Incidence: Number of mice with pulmonary fibrosis (%) (pulmonary fibrosis): 38% | Incidence: Number of mice with pulmonary fibrosis (pulmonary fibrosis): 3/8 | Grade: Total score of pulmonary fibrosis/total number of samples (pulmonary fibrosis): 5/24 | Grade: Total score of pulmonary fibrosis/total number of samples (%) (pulmonary fibrosis): 21% | Ratio (by comparison with "Bleomycin Complex") (pulmonary fibrosis): 0.27 | Antimicrobial potency of Cu-free compound against Mycobacterium smegmatis ATCC 607 [1]: 11998 mcg potency/mg

CCCCNCCCN(C)CCCNC(=O)c1csc(-c2csc(CCNC(=O)C(NC(=O)C(C)C(O)C(C)NC(=O)C(NC(=O)c3nc(C(CC(N)=O)NCC(N)C(=O)NC(C)C)nc(N)c3C)C(OC3OC(CO)C(O)C(O)C3OC3OC(CO)C(O)C(OC(N)=O)C3O)c3cnc[nH]3)C(C)O)n2)n1 (stereo not shown) [Compound 37, 3-[N--methyl-N--(3-n-butylaminopropyl)amino]propylamino-(amido)N--[isopropyl]-BLM]
Antimicrobial potency of Cu-free compound against Bacillus subtilis (Bacillus subtilis): 20048 mcg potency/mg | Incidence: Number of mice with pulmonary fibrosis (%) (pulmonary fibrosis): 33% | Incidence: Number of mice with pulmonary fibrosis (pulmonary fibrosis): 3/9 | Grade: Total score of pulmonary fibrosis/total number of samples (pulmonary fibrosis): 13/27 | Grade: Total score of pulmonary fibrosis/total number of samples (%) (pulmonary fibrosis): 48% | Ratio (by comparison with "Bleomycin Complex") (pulmonary fibrosis): 0.46 | Antimicrobial potency of Cu-free compound against Mycobacterium smegmatis ATCC 607 [1]: 13210 mcg potency/mg

Cc1c(N)nc(C(CC(N)=O)NCC(N)C(=O)NCCCNC(C)c2ccccc2)nc1C(=O)NC(C(=O)NC(C)C(O)C(C)C(=O)NC(C(=O)NCCc1nc(-c2nc(C(=O)NCCCN(C)CCCNCCc3ccc(Cl)cc3)cs2)cs1)C(C)O)C(OC1OC(CO)C(O)C(O)C1OC1OC(CO)C(O)C(OC(N)=O)C1O)c1cnc[nH]1 [Compound 43, 3-{N--methyl-N--[3-(2-(p-chlorophenyl)ethyl)aminopropyl]amino}-propylamino-(amido)N--[3-((S)-1'-phenylethyl)aminopropyl]-BLM]
Antimicrobial potency of Cu-free compound against Bacillus subtilis (Bacillus subtilis): 4267 mcg potency/mg | Incidence: Number of mice with pulmonary fibrosis (%) (pulmonary fibrosis): 0% | Incidence: Number of mice with pulmonary fibrosis (pulmonary fibrosis): 0/1 | Grade: Total score of pulmonary fibrosis/total number of samples (pulmonary fibrosis): 0/3 | Grade: Total score of pulmonary fibrosis/total number of samples (%) (pulmonary fibrosis): 0% | Ratio (by comparison with "Bleomycin Complex") (pulmonary fibrosis): 0 | Antimicrobial potency of Cu-free compound against Mycobacterium smegmatis ATCC 607 [1]: 15593 mcg potency/mg

CCCCNCCCN(C)CCCNC(=O)c1csc(-c2csc(CCNC(=O)C(NC(=O)C(C)C(O)C(C)NC(=O)C(NC(=O)c3nc(C(CC(N)=O)NCC(N)C(=O)NCCCN(C)CCCNCCCC)nc(N)c3C)C(OC3OC(CO)C(O)C(O)C3OC3OC(CO)C(O)C(OC(N)=O)C3O)c3cnc[nH]3)C(C)O)n2)n1 (stereo not shown) [Compound 38, 3-[N--methyl-N--(3-n-butylaminopropyl)amino]propylamino-(amido)N--{3-[N--methyl-N--(3-n-butylaminopropyl)amino]-propyl}-BLM]
Antimicrobial potency of Cu-free compound against Bacillus subtilis (Bacillus subtilis): 6600 mcg potency/mg | Incidence: Number of mice with pulmonary fibrosis (%) (pulmonary fibrosis): 71% | Incidence: Number of mice with pulmonary fibrosis (pulmonary fibrosis): 5/7 | Grade: Total score of pulmonary fibrosis/total number of samples (pulmonary fibrosis): 7/21 | Grade: Total score of pulmonary fibrosis/total number of samples (%) (pulmonary fibrosis): 33% | Ratio (by comparison with "Bleomycin Complex") (pulmonary fibrosis): 0.32 | Antimicrobial potency of Cu-free compound against Mycobacterium smegmatis ATCC 607 [1]: 5100 mcg potency/mg

Cc1c(N)nc(C(CC(N)=O)NCC(N)C(=O)NCCCNC(C)c2ccccc2)nc1C(=O)NC(C(=O)NC(C)C(O)C(C)C(=O)NC(C(=O)NCCc1nc(-c2nc(C(=O)NCCC[N+](C)(CCCN(Cc3ccccc3)Cc3ccccc3)Cc3ccccc3)cs2)cs1)C(C)O)C(OC1OC(CO)C(O)C(O)C1OC1OC(CO)C(O)C(OC(N)=O)C1O)c1cnc[nH]1 [Compound 47, 3-{N--methyl-N--benzyl-N--[3-(dibenzylamino)propylamino}-propylamino-(amido)N--[3-((S)-1'-phenylethyl)aminopropyl]-BLM]
Antimicrobial potency of Cu-free compound against Bacillus subtilis (Bacillus subtilis): 180 mcg potency/mg | Incidence: Number of mice with pulmonary fibrosis (%) (pulmonary fibrosis): 0% | Incidence: Number of mice with pulmonary fibrosis (pulmonary fibrosis): 0/8 | Grade: Total score of pulmonary fibrosis/total number of samples (pulmonary fibrosis): 0/24 | Grade: Total score of pulmonary fibrosis/total number of samples (%) (pulmonary fibrosis): 0% | Ratio (by comparison with "Bleomycin Complex") (pulmonary fibrosis): 0 | Antimicrobial potency of Cu-free compound against Mycobacterium smegmatis ATCC 607 [1]: 5900 mcg potency/mg

Cc1c(N)nc(C(CC(N)=O)NCC(N)C(=O)NCc2ccccc2)nc1C(=O)NC(C(=O)NC(C)C(O)C(C)C(=O)NC(C(=O)NCCc1nc(-c2nc(C(=O)NCCC[N+](C)(CCCN(Cc3ccccc3)Cc3ccccc3)Cc3ccccc3)cs2)cs1)C(C)O)C(OC1OC(CO)C(O)C(O)C1OC1OC(CO)C(O)C(OC(N)=O)C1O)c1cnc[nH]1 (stereo not shown) [Compound 51, 3-{N--methyl-N--benzyl-N--[3-(dibenzylamino)propyl]amino}-propylamino-(amido)N--[benzyl]-BLM]
Antimicrobial potency of Cu-free compound against Bacillus subtilis (Bacillus subtilis): 410 mcg potency/mg | Incidence: Number of mice with pulmonary fibrosis (%) (pulmonary fibrosis): 0% | Incidence: Number of mice with pulmonary fibrosis (pulmonary fibrosis): 0/8 | Grade: Total score of pulmonary fibrosis/total number of samples (pulmonary fibrosis): 0/24 | Grade: Total score of pulmonary fibrosis/total number of samples (%) (pulmonary fibrosis): 0% | Ratio (by comparison with "Bleomycin Complex") (pulmonary fibrosis): 0 | Antimicrobial potency of Cu-free compound against Mycobacterium smegmatis ATCC 607 [1]: 24461 mcg potency/mg

CCCCN(CCCC)CCCNC(=O)C(N)CNC(CC(N)=O)c1nc(N)c(C)c(C(=O)NC(C(=O)NC(C)C(O)C(C)C(=O)NC(C(=O)NCCc2nc(-c3nc(C(=O)NCCCN(C)CCCNCC4CCCCCCC4)cs3)cs2)C(C)O)C(OC2OC(CO)C(O)C(O)C2OC2OC(CO)C(O)C(OC(N)=O)C2O)c2cnc[nH]2)n1 (stereo not shown) [Compound 58, 3-[N--methyl-N--[3-(cyclooctylmethylamino)propyl]amino}-propylamino-(amido)N--[3-(di-n-butyamino)propyl]-BLM]
Antimicrobial potency of Cu-free compound against Bacillus subtilis (Bacillus subtilis): 5518 mcg potency/mg | Incidence: Number of mice with pulmonary fibrosis (%) (pulmonary fibrosis): 0% | Incidence: Number of mice with pulmonary fibrosis (pulmonary fibrosis): 0/9 | Grade: Total score of pulmonary fibrosis/total number of samples (pulmonary fibrosis): 0/27 | Grade: Total score of pulmonary fibrosis/total number of samples (%) (pulmonary fibrosis): 0% | Ratio (by comparison with "Bleomycin Complex") (pulmonary fibrosis): 0 | Antimicrobial potency of Cu-free compound against Mycobacterium smegmatis ATCC 607 [1]: 62418 mcg potency/mg

CCCCN(CCCC)CCCNC(=O)C(N)CNC(CC(N)=O)c1nc(N)c(C)c(C(=O)NC(C(=O)NC(C)C(O)C(C)C(=O)NC(C(=O)NCCc2nc(-c3nc(C(=O)NCCCNC(C)c4ccccc4)cs3)cs2)C(C)O)C(OC2OC(CO)C(O)C(O)C2OC2OC(CO)C(O)C(OC(N)=O)C2O)c2cnc[nH]2)n1 [Compound 34, 3-((S)-1'-phenylethylamino)propylamino-(amido)N--[3-(di-n-butylamino)propyl]-BLM]
Antimicrobial potency of Cu-free compound against Bacillus subtilis (Bacillus subtilis): 2843 mcg potency/mg | Incidence: Number of mice with pulmonary fibrosis (%) (pulmonary fibrosis): 0% | Incidence: Number of mice with pulmonary fibrosis (pulmonary fibrosis): 0/8 | Grade: Total score of pulmonary fibrosis/total number of samples (pulmonary fibrosis): 0/24 | Grade: Total score of pulmonary fibrosis/total number of samples (%) (pulmonary fibrosis): 0% | Ratio (by comparison with "Bleomycin Complex") (pulmonary fibrosis): 0 | Antimicrobial potency of Cu-free compound against Mycobacterium smegmatis ATCC 607 [1]: 26023 mcg potency/mg

CCCCCCCCNC(=O)C(N)CNC(CC(N)=O)c1nc(N)c(C)c(C(=O)NC(C(=O)NC(C)C(O)C(C)C(=O)NC(C(=O)NCCc2nc(-c3nc(C(=O)NCCCN(C)CCCNCC4CCCCCCC4)cs3)cs2)C(C)O)C(OC2OC(CO)C(O)C(O)C2OC2OC(CO)C(O)C(OC(N)=O)C2O)c2cnc[nH]2)n1 (stereo not shown) [Compound 59, 3-{N--methyl-N--[3-(cyclooctylmethylamino)propyl]amino}propyl-amino-(amido)N--[octyl]-BLM]
Antimicrobial potency of Cu-free compound against Bacillus subtilis (Bacillus subtilis): 5473 mcg potency/mg | Incidence: Number of mice with pulmonary fibrosis (%) (pulmonary fibrosis): 0% | Incidence: Number of mice with pulmonary fibrosis (pulmonary fibrosis): 0/9 | Grade: Total score of pulmonary fibrosis/total number of samples (pulmonary fibrosis): 0/27 | Grade: Total score of pulmonary fibrosis/total number of samples (%) (pulmonary fibrosis): 0% | Ratio (by comparison with "Bleomycin Complex") (pulmonary fibrosis): 0 | Antimicrobial potency of Cu-free compound against Mycobacterium smegmatis ATCC 607 [1]: 65733 mcg potency/mg

Cc1c(N)nc(C(CC(N)=O)NCC(N)C(=O)NCCC[N+](C)(CCCN(Cc2ccccc2)Cc2ccccc2)Cc2ccccc2)nc1C(=O)NC(C(=O)NC(C)C(O)C(C)C(=O)NC(C(=O)NCCc1nc(-c2nc(C(=O)NCCC[N+](C)(CCCN(Cc3ccccc3)Cc3ccccc3)Cc3ccccc3)cs2)cs1)C(C)O)C(OC1OC(CO)C(O)C(O)C1OC1OC(CO)C(O)C(OC(N)=O)C1O)c1cnc[nH]1 (stereo not shown) [Compound 49, 3-{N--methyl-N--benzyl-N--[3-(dibenzylamino)propylamino}-propylamino-(amido)N--{3-{N--methyl-N--benzyl-N--[3-dibenzyl-amino)propyl]amino}propyl}-BLM]
Antimicrobial potency of Cu-free compound against Bacillus subtilis (Bacillus subtilis): 1 mcg potency/mg | Incidence: Number of mice with pulmonary fibrosis (%) (pulmonary fibrosis): 0% | Incidence: Number of mice with pulmonary fibrosis (pulmonary fibrosis): 0/3 | Grade: Total score of pulmonary fibrosis/total number of samples (pulmonary fibrosis): 0/9 | Grade: Total score of pulmonary fibrosis/total number of samples (%) (pulmonary fibrosis): 0% | Ratio (by comparison with "Bleomycin Complex") (pulmonary fibrosis): 0 | Antimicrobial potency of Cu-free compound against Mycobacterium smegmatis ATCC 607 [1]: 230 mcg potency/mg
